The subject of experiment [1] is dwf4 seedlings. The experiment in a line: Feeding of BR biosynthetic intermediates to dwf4 seedlings in liquid media (rescue, dose-response). It is filed as in vivo, Arabidopsis thaliana. Particulars: for rescue of the light-grown dwf4 phenotype: liquid media. As to the method: In view of the results described above, we hypothesized that DWF4 mediates one or more of several steroid hydroxylation steps in the BR biosynthetic pathway. To test this, dwf4 was grown on all of the available biosynthetic intermediates in the BR biosynthetic pathways and examined to ascertain which intermediates could rescue the dwarf phenotype. In addition to the intermediates belonging to the early C-6 oxidation and late C-6 oxidation pathways (Choi et al. (1997), supra), 22α-hydroxycampesterol (22-OHCR), 6α-hydroxycastasterone (6-OHCT) (Takatsuto et al. (1997) J. Chem. Res. (synop.) 11:418-419), and […] (S. Takatsuto, T. Watanabe, T. Noguchi, and S. Fujioka, unpublished data) were synthesized and tested.
Germinated seedlings were transferred to media supplemented with one of the intermediates or BL to pinpoint the step catalyzed by DWF4. […] In addition, the rescued seedlings were less green than the dwarfs. These experiments were conducted in liquid media. Feeding experiments performed in the dark yielded similar results.
However, on CT the overall morphology of dwf4 was essentially rescued to wild-type phenotype at 3×10^−7 M and higher, whereas with 6-deoxoCT, rescue occurred with as little as 10^−7 M and may have even been inhibitory at higher concentrations. Of particular interest is the more dramatic response of the epicotyls versus the smaller response of the hypocotyls to CT. This same phenomenon was true for seedlings treated with >10^−7 M 6-deoxoCT.
A higher concentration of CT for dark-grown seedlings, compared with light-grown seedlings, 3×10^−6 M (FIG. 5B), was required to convert the hypocotyl to a length similar to that of the wild type.

For a further experiment, the system named is dwf8-1. The experiment in a line: Feeding of 22-OHCR to dwf8-1 dwarf mutant. The note with it: unpublished data. It is filed as in vivo, Arabidopsis thaliana.
Another experiment deals with 6-week-old dwf4 plants. The experiment in a line: Treatment of soil-grown mature dwf4 plants with BR intermediates and BL (pedicel elongation). It is filed as in vivo, Arabidopsis thaliana. As to the method: To determine whether the results of the seedling feeding experiments could be applicable to soil-grown mature plants, 6-week-old dwf4 plants were treated with BR intermediates and BL. Concentrations of applied intermediates were adjusted empirically to optimize responses. Consistent with the results obtained from the seedlings experiments, only 22α-hydroxylated compounds can rescue the dwf4 phenotype. The elongation response was only observed in the young tissues of the inflorescence, regardless of whether the BRs were applied locally or sprayed over the entire plant. In contrast to the striking elongation of the peduncles and pedicels, fertility was not restored by BR treatment. The sterility in dwf4 is hypothesized to be mechanical, which means that the filaments are shorter than the carpels such that the pollen is shed onto the ovary walls rather than onto the stigmatic surface. In fact, if dwf4 plants are hand pollinated using […], fertility increases.

In experiment [2] the test system is dwf4 seedlings. The experiment in a line: Brassinolide response of seedlings in liquid culture (hypocotyl length). It is filed as in vivo, Arabidopsis thaliana. The note with it: liquid medium, 10^−6 M BL. As for the experimental part: (§1) Gibberellic acid (GA) response was assayed on plants grown individually in 5.7-cm pots. Once inflorescences reached 1 to 2 mm in height, they were sprayed weekly with 1 mM GA3 (Sigma). Control plants were sprayed with water. One week after the third spraying, plants were collected, and the length of the main stem was measured between the top of the rosette and the base of the most distal pedicel; 13 to 18 plants of each line were measured per treatment. Auxin response was tested by growing seedlings for 10 days under 16 hr of light on vertically oriented agar plates containing various concentrations of 2,4-D (Gibco, Grand Island, N.Y.). Genetic interaction with the hy2 mutation was tested by growing seedlings under continuous light for 7 days. Brassinolide (BL) response was determined in liquid culture, as described by Clouse et al. (1993) supra, except that three or four seedlings were grown in each well of a 24-well culture plate for 7 days. Measurements were taken for 10 to 20 seedlings for each genotype and condition, under a dissection microscope fitted with an ocular micrometer.
In the course of our studies, we prepared a genomic library from dwf4-1, from which we isolated a clone in which a fragment of T-DNA interrupts a gene encoding a putative cytochrome P450 steroid hydroxylase.

A further experiment has as its system rice lamina. Particulars: Fujioka et al. (1995b); cited from earlier work.
In experiment [3] the test system is wild-type and dwf4 seedlings. The experiment in a line: GA response of seedlings germinated on GA (hypocotyl elongation). It is filed as in vivo, Arabidopsis thaliana. As for the experimental part: The conditions used for plant growth were essentially as described previously (Feldmann (1991) Plant J. 1:71-82; Forsthoefel et al. (1992) Aust. J. Plant Physiol. 19:353-366), except that agar-solidified medium contained 0.5% sucrose. Seedlings up to 2 weeks of age ([…] of age for dark-growth experiments) were grown on 0.9% agar-solidified medium containing 1×Murashige and Skoog 1962 salts (Murashige, T., and Skoog, F. (1962) Physiol. Plant, 15:473-497) and 0.5% sucrose (w/v) and cold treated (4° C.) for 2 days in the dark before transfer to the light (24 hr light; 80 μmol M^−2 sec^−1); older plants were grown in potting soil. The plates were sealed with Parafilm (American National Can Co., Chicago, Ill.) for the entire experiment. For nucleic acid extraction, genetic analysis, and other experiments in which mature plants were required, seeds were sown on Metromix 350 (Grace Sierra, Milpitas, Calif.) presoaked with distilled water. The pots were covered with plastic wrap and cold treated (4° C.) for two days before transfer to a growth chamber (16:8, light [240 μmol m^−2 sec^−1]:dark; 22 and 21° C., respectively, and 75 to 90% humidity). The plastic wrap was removed 5 days after germination, and the pots were subirrigated in distilled water as required. Germination of seeds for dark growth experiments was induced by overnight exposure of the seeds to light immediately after removing the plates from incubation at 4° C. The dwf4-1 and dwf4-2 mutations were in the Arabidopsis thaliana ecotype Wassilewskija (Ws-2) background; the dwf4-3 and dwf4-4 mutations were in the Enkheim (En-2) background.
Of the endogenous (hormonal) signals that might be deficient in dwarf plants, an obvious candidate is GA, because gibberellin-deficient mutants are shorter in stature than are the wild-type plants (Koommeef and Van der Veen, supra). Our results, however, indicate that dwf4 is not defective in the synthesis of gibberellins. […] Similar results were obtained when soil-grown plants were sprayed with 1 mM GA once inflorescences first became visible: dwf4 inflorescence stems elongated by only 28% above the untreated controls, whereas those of the wild type elongated by 45% above the untreated controls. Mutants that owe their reduced stature to decreased levels of endogenous gibberellins can be fully rescued by added hormone (Koornneef and Van der Veen, supra; Talon et al., supra). In addition, dwf4 seeds germinate in the absence of exogenously supplied GA.

A further experiment has as its system DWF4 promoter (D4GL). Put plainly: DWF4-promoter:GUS (D4GL) activity in seedlings supplied with hormone. It is filed as in vivo, Arabidopsis thaliana. The text has this:
Two promoter constructs were used for the DWF4-promoter:GUS(D4G) analysis. For promoter fusions, polymerase chain reaction (PCR) products spanning 1.1 kb DNA upstream of the translation initiation site were amplified using primers D4XLINIT (5′-[…]-3′) (SEQ ID NO:16) and a T7 primer (5′[…]-3′) (SEQ ID NO:17). For template for PCR, a DWF4 genomic clone subcloned into pBluescript SK-vector (Stratagene La Jolla, Calif.) was used as described herein. The PCR products were restricted with SalI and BamHI, and ligated into the same restriction site of a promoterless GUS vectors pBI101; this 1.1 kb promoter:GUS construct as named pD4GL. For the pD4GS construct, pD4GL was digested with HindIII, the small restriction fragment was removed, and the remaining vector with the partial promoter was self-ligated. The constructs were introduced into Agrobacterium strain GV3101 through electroporation.
For histochemical analysis of the D4GL plants, seeds were plated on M&S plates and grown in the dark and light. Seedlings were harvested at the designated dates and stained overnight using a substrate mixture (0.1 M NaPO4, pH 7, 10 mM EDTA, 0.5 mM K3Fe(CN)6, 0.5 mM K4FE(CN)6, 1 mM X-glucuronide, and 0.1% Triton X-100). Seedlings cleared with 90% ethanol were rehydrated before taking pictures using a Stemi SV11 dissecting microscope (Zeiss, N.Y.).
Since DWF4 is proposed to be a key enzyme in the BR biosynthetic pathway, DWF4 transcription could be regulated by an end-product feedback mechanism. To this end, D4GL was expressed in different genetic backgrounds including two BR deficient mutants, dwf7-1 and dwf8-1, and a BR-enriched line, AOD4. GUS activity was increased in dwf7-1 and dwf8-1 but decreased in AOD4 lines. DWF7 is a C-5 desaturase that acts in the sterol specific part of the pathway. D4GL activity in dwf7-1 was found in the same tissues as wild type but, dwf8-1 is defective in a BR biosynthetic step downstream of CPD. […]

In experiment [4] the test system is wild-type and dwf4 plants. Put plainly: GA response of soil-grown plants sprayed with GA (inflorescence stem length). It is filed as in vivo, Arabidopsis thaliana. As to the method:
as §1
Of the endogenous (hormonal) signals that might be deficient in dwarf plants, an obvious candidate is GA, because gibberellin-deficient mutants are shorter in stature than are the wild-type plants (Koommeef and Van der Veen, supra). […]

The next experiment concerns wild-type seedlings. Put plainly: Hypocotyl and root length of wild-type seedlings supplemented with epi-BL. It is filed as in vivo, Arabidopsis thaliana. Particulars: light-grown wild type, 10^−6 M epi-BL, 12 days. As to the method: To compare the phenotypic effects resulting form the endogenous and exogenous addition of BRs, the length of roots and hypocotyls of 16 seedlings of dwf4, wild-type controls, wild-type plants supplemented with 10^−6 M epi-BL, and two independent AOD4 lines, grown for 12 days in the light or dark was measured. […] These characteristic responses of wild-type plants to epi-BL treatment were similar in two independent AOD4 lines. […] Inhibition of root growth was also obvious in the AOD4 lines. Furthermore the increased hypocotyl length and reduced root length were consistently observed in 15 independent transformants of tobacco (TOD4) harboring a pOD4 construct.

We go through five compounds from patent US7935532B2, “DWF4 polynucleotides, polypeptides and uses thereof” (Arizona Board of Regents for and on behalf of Arizona State …, priority 1999, dated 2011).

Turning to `CC(C)[C@H](C)C[C@H](O)[C@@H](C)[C@H]1CC[C@H]2[C@@H]3CC=C4C[C@@H](O)CC[C@]4(C)[C@H]3CC[C@]12C` [22-OHCR, 22α-hydroxycampesterol], the “rescue of the light-grown dwf4 phenotype” value in the experiment with dwf4 seedlings [1] (light-grown seedlings) was “rescued”. Besides, the “effectiveness in rescuing the dwf4 phenotype, light versus dark” value in the experiment with dwf4 seedlings [1] (unpublished data) was “more effective in the light”. The “rescue of dwf8-1 dwarf mutant” value with dwf8-1 was “not rescued”. For the same compound, the pedicel elongation response result with 6-week-old dwf4 plants (22-OHCR 10^−5 M) is given as “dramatic elongation response”.
As to `CC(C)[C@H](C)[C@@H](O)[C@H](O)[C@@H](C)[C@H]1CC[C@H]2[C@@H]3COC(=O)[C@H]4C[C@H](O)[C@H](O)C[C@]4(C)[C@H]3CC[C@]12C` [BL, 2α, 3α, 22(R), 23(R)-tetrahydroxy-24(S)-methyl-B-homo-7-oxa-5α-cholestan-6-one], the dwf4 hypocotyl height result with dwf4 seedlings [2] is reported as “restored to wild-type height”. In the experiment with 6-week-old dwf4 plants (BL 10^−7 M), the “bioactivity in dwf4 pedicel elongation” value is “highest bioactivity”. In the experiment with 6-week-old dwf4 plants (BL 10^−7 M versus precursors), the “degree of pedicel elongation response” value was “approximately the same degree of response as its precursor compounds at 10^−6 M”.
Turning to `CC(C)[C@H](C)C[C@H](O)[C@@H](C)[C@H]1CC[C@H]2[C@@H]3CC(=O)[C@H]4C[C@@H](O)CC[C@]4(C)[C@H]3CC[C@]12C` [CT, Cathasterone], the “concentration required to convert the dwf4 hypocotyl to a length similar to wild type” value in the experiment with dwf4 seedlings [1] (dark-grown seedlings) is 3 µM. For the same compound, in the experiment with dwf4 seedlings [1] (light-grown seedlings, dose-response), the “concentration at which dwf4 overall morphology is rescued to wild-type phenotype” value is ≥ 3×10^−7 M. Further, in the experiment with dwf4 seedlings [1] (light-grown seedlings), the “rescue of the light-grown dwf4 phenotype” value was “rescued”. The “activity relative to 6-oxoCN” value with rice lamina was roughly 500 times.
As for `C=C1C[C@]23C[C@@]1(O)CC[C@H]2[C@@]12C=C[C@H](O)[C@@](C)(C(=O)O1)[C@H]2[C@@H]3C(=O)O` [GA, Gibberellic acid], the “hypocotyl elongation response to GA” value in experiment [3] (dwf4 seedlings germinated on 10^−5 M GA) is recorded as “responded minimally, if at all”; in experiment [3] (dwf4 seedlings, 10^−4 M compared with 10^−5 M GA) it was “essentially saturated for elongation”; in experiment [3] (wild-type seedlings at 10^−4 M GA), “elongated slightly more than at 10^−5 M”; in [3] (wild-type seedlings germinated on 10^−5 M GA) it was “demonstrated an elongation response”. In the experiment with DWF4 promoter (D4GL) (10^−4 M GA3), the “GUS staining in shoots and roots of D4GL plants” value is given as “did not display an increase in GUS staining”. Also, the “hypocotyl length of D4GL plants” value in the experiment on DWF4 promoter (D4GL) (10^−4 M GA3) is “longer than controls”. Moreover, the “inflorescence stem elongation above the untreated controls” value in [4] (dwf4, soil-grown plants sprayed with 1 mM GA) came out at 28%; in experiment [4] (wild type, soil-grown plants sprayed with 1 mM GA) it was 45%.
As to `CC(C)[C@@H](C)[C@@H](O)[C@H](O)[C@@H](C)[C@H]1CC[C@H]2[C@@H]3COC(=O)[C@H]4C[C@H](O)[C@H](O)C[C@]4(C)[C@H]3CC[C@]12C` [epi-BL, 24-epibrassinolide], in the experiment with wild-type seedlings, the hypocotyl length entry was “elongated hypocotyls” and the root length entry was “shorter than untreated control plants”. Moreover, the “GUS activity of D4GL plants” value in the experiment on DWF4 promoter (D4GL) (10^−6 M epi-BL, tissues normally stained in untreated controls) was “greatly reduced GUS activity”.
